Test results published in PubChem BioAssay AID248 (DTP/NCI, 2004).
Where “and” joins values, the source holds several entries; their conditions need not be identical. Equal values may be shown once. Inconclusive results and toxic doses are left out.

Tested on: L1210 leukemia ip in BDF1 mice, survival T/C
Assay: NCI In Vivo Anticancer Drug Screen. Data for tumor model L1210 Leukemia (intraperitoneal) in B6D2F1 (BDF1) mice
Conditions: higher = longer survival
Summary of the method: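 In this screen, tumor-bearing mice given compound are compared to those given vehicle, and their survival values are reported as a treated-to-control quotient.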

[1] = endpoint: mean survival time, dose: 100.0 mg/kg/injection, schedule: Q01DX009 (ip), vehicle: saline with Tween-80
[2] = endpoint: mean survival time, dose: 200.0 mg/kg/injection, schedule: Q01DX009 (ip), vehicle: saline with Tween-80
[3] = endpoint: mean survival time, dose: 400.0 mg/kg/injection, schedule: Q01DX009 (ip), vehicle: saline with Tween-80
[4] = endpoint: mean survival time, dose: 100.0 mg/kg/injection, schedule: Q01DX009 (ip), vehicle: saline
[5] = endpoint: mean survival time, dose: 200.0 mg/kg/injection, schedule: Q01DX009 (ip), vehicle: saline
[6] = endpoint: mean survival time, dose: 100.0 mg/kg/injection, schedule: Q04DX003 (ip), vehicle: saline with Tween-80
[7] = endpoint: mean survival time, dose: 200.0 mg/kg/injection, schedule: Q04DX003 (ip), vehicle: saline with Tween-80
[8] = endpoint: mean survival time, dose: 400.0 mg/kg/injection, schedule: Q04DX003 (ip), vehicle: saline with Tween-80
[9] = endpoint: mean survival time, dose: 100.0 mg/kg/injection, schedule: Q04DX002 (ip), vehicle: saline
[10] = endpoint: mean survival time, dose: 200.0 mg/kg/injection, schedule: Q04DX002 (ip), vehicle: saline
[11] = endpoint: mean survival time, dose: 100.0 mg/kg/injection, schedule: Q04DX003 (ip), vehicle: Klucel (hydroxypropylcellulose) (HPC)
[12] = endpoint: mean survival time, dose: 200.0 mg/kg/injection, schedule: Q04DX003 (ip), vehicle: Klucel (hydroxypropylcellulose) (HPC)
[13] = endpoint: mean survival time, dose: 400.0 mg/kg/injection, schedule: Q04DX003 (ip), vehicle: Klucel (hydroxypropylcellulose) (HPC)
[14] = endpoint: mean survival time, dose: 100.0 mg/kg/injection, schedule: Q04DX002 (ip), vehicle: Klucel (hydroxypropylcellulose) (HPC)
[15] = endpoint: mean survival time, dose: 200.0 mg/kg/injection, schedule: Q04DX002 (ip), vehicle: Klucel (hydroxypropylcellulose) (HPC)
[16] = endpoint: mean survival time, dose: 400.0 mg/kg/injection, schedule: Q04DX002 (ip), vehicle: Klucel (hydroxypropylcellulose) (HPC)

CC/C(=C(\CC)c1ccc(OCC(=O)N(CCCl)CCCl)cc1)c1ccc(OCC(=O)N(CCCl)CCCl)cc1
T/C (endpoint: mean survival time, dose: 5.0 mg/kg/injection, schedule: Q04DX002 (ip), vehicle: saline): 105 % of control | T/C (endpoint: mean survival time, dose: 10.0 mg/kg/injection, schedule: Q04DX002 (ip), vehicle: saline): 97 % of control | T/C (endpoint: mean survival time, dose: 20.0 mg/kg/injection, schedule: Q04DX002 (ip), vehicle: saline): 94 % of control

Cc1cc([N+](C)(C)C)cc(C)c1C#[N+][O-]
T/C (endpoint: mean survival time, dose: 1.25 mg/kg/injection, schedule: Q01DX001 (ip), vehicle: saline): 104 % of control | T/C (endpoint: mean survival time, dose: 2.5 mg/kg/injection, schedule: Q01DX001 (ip), vehicle: saline): 93 % of control | T/C (endpoint: mean survival time, dose: 5.0 mg/kg/injection, schedule: Q01DX001 (ip), vehicle: saline): 102 % of control | T/C (endpoint: mean survival time, dose: 10.0 mg/kg/injection, schedule: Q01DX001 (ip), vehicle: saline): 102 % of control

O=C(O)CNC(=O)C(Br)Cc1ccccc1 (centres undefined)
T/C [1]: 96 % of control | T/C [2]: 89 % of control | T/C [3]: 89 % of control

C=C(C)C(N)=O
T/C [4]: 102 % of control | T/C [5]: 94 % of control

O=S1(=O)CCC(NCCSS(=O)(=O)O)CC1
T/C [6]: 96 % of control | T/C [7]: 96 % of control | T/C [8]: 104 % of control

CCN(CC)CCNCC(Cc1ccccc1)c1ccccc1 (centres undefined)
T/C [9]: 99 % of control | T/C [10]: 105 % of control

NNC(=O)Cc1ccc(Cl)c2ccccc12
T/C [11]: 104 % of control | T/C [12]: 91 % of control

CN1c2ccccc2C=C(C(=O)c2ccccc2)C1c1ccccc1 (centres undefined)
T/C (endpoint: mean survival time, dose: 50.0 mg/kg/injection, schedule: Q01DX001 (ip), vehicle: saline): 100 % of control | T/C (endpoint: mean survival time, dose: 100.0 mg/kg/injection, schedule: Q01DX001 (ip), vehicle: saline): 102 % of control | T/C (endpoint: mean survival time, dose: 200.0 mg/kg/injection, schedule: Q01DX001 (ip), vehicle: saline): 97 % of control

CCOC(=O)CC(CC(=O)OCC)C(=O)OCC
T/C [9]: 104 % of control | T/C [10]: 96 % of control | T/C (endpoint: mean survival time, dose: 400.0 mg/kg/injection, schedule: Q04DX002 (ip), vehicle: saline): 107 % of control

N=C(N)c1ccc(NC(=O)c2ccc(C(=O)Nc3ccc(C(=N)N)cc3)c(N)c2)cc1
T/C (endpoint: mean survival time, dose: 62.0 mg/kg/injection, schedule: Q01DX Z (ip), vehicle: carboxymethylcellulose (CMC)): 106 % of control | T/C (endpoint: mean survival time, dose: 125.0 mg/kg/injection, schedule: Q01DX Z (ip), vehicle: carboxymethylcellulose (CMC)): 118 % of control | T/C (endpoint: mean survival time, dose: 500.0 mg/kg/injection, schedule: Q01DX Z (ip), vehicle: carboxymethylcellulose (CMC)): 113 % of control

O=C(Cl)c1ccc(C(Cl)(Cl)Cl)cc1
T/C [11]: 95 % of control | T/C [12]: 111 % of control | T/C [13]: 104 % of control

CCN(CC)C(=O)Nc1cccc(OC(=O)NC)c1
T/C [6]: 99 % of control | T/C [7]: 98 % of control

Cc1c[nH]c2nccnc12
T/C (endpoint: mean survival time, dose: 100.0 mg/kg/injection, schedule: Q01DX009 (ip), vehicle: water): 102 % of control | T/C (endpoint: mean survival time, dose: 100.0 mg/kg/injection, schedule: Q04DX003 (ip), vehicle: water): 108 % of control | T/C (endpoint: mean survival time, dose: 200.0 mg/kg/injection, schedule: Q01DX009 (ip), vehicle: water): 96 % of control | T/C (endpoint: mean survival time, dose: 200.0 mg/kg/injection, schedule: Q04DX003 (ip), vehicle: water): 98 % of control | T/C (endpoint: mean survival time, dose: 400.0 mg/kg/injection, schedule: Q01DX009 (ip), vehicle: water): 105 % of control | T/C (endpoint: mean survival time, dose: 400.0 mg/kg/injection, schedule: Q04DX003 (ip), vehicle: water): 101 % of control

CCCCOB=O
T/C [1]: 96 % of control | T/C [2]: 106 % of control | T/C [3]: 98 % of control

CCCCCN(C)/N=N/c1nc[nH]c1C(N)=O
T/C (endpoint: mean survival time, dose: 7.5 mg/kg/injection, schedule: Q01DX Z (ip), vehicle: carboxymethylcellulose (CMC)): 102 % of control | T/C (endpoint: mean survival time, dose: 10.0 mg/kg/injection, schedule: Q01DX Z (ip), vehicle: carboxymethylcellulose (CMC)): 110 % of control | T/C (endpoint: mean survival time, dose: 11.0 mg/kg/injection, schedule: Q01DX009 (ip), vehicle: carboxymethylcellulose (CMC)): 101 % of control | T/C (endpoint: mean survival time, dose: 15.0 mg/kg/injection, schedule: Q01DX Z (ip), vehicle: carboxymethylcellulose (CMC)): 119 % of control | T/C (endpoint: mean survival time, dose: 16.75 mg/kg/injection, schedule: Q01DX009 (ip), vehicle: carboxymethylcellulose (CMC)): 100 % of control | T/C (endpoint: mean survival time, dose: 25.0 mg/kg/injection, schedule: Q01DX009 (ip), vehicle: carboxymethylcellulose (CMC)): 118 % of control | T/C (endpoint: mean survival time, dose: 37.5 mg/kg/injection, schedule: Q01DX009 (ip), vehicle: carboxymethylcellulose (CMC)): 124 % of control | T/C (endpoint: mean survival time, dose: 75.0 mg/kg/injection, schedule: Q01DX Z (ip), vehicle: carboxymethylcellulose (CMC)): 117 % of control | T/C (endpoint: mean survival time, dose: 100.0 mg/kg/injection, schedule: Q01DX001 (ip), vehicle: carboxymethylcellulose (CMC)): 119 % of control | T/C (endpoint: mean survival time, dose: 100.0 mg/kg/injection, schedule: Q01DX009 (ip), vehicle: carboxymethylcellulose (CMC)): 154 % of control | T/C (endpoint: mean survival time, dose: 120.0 mg/kg/injection, schedule: Q01DX015 (ip), vehicle: carboxymethylcellulose (CMC)): 96 % of control | T/C (endpoint: mean survival time, dose: 178.0 mg/kg/injection, schedule: Q01DX001 (ip), vehicle: carboxymethylcellulose (CMC)): 108 % of control | T/C (endpoint: mean survival time, dose: 200.0 mg/kg/injection, schedule: Q01DX001 (ip), vehicle: carboxymethylcellulose (CMC)): 152 % of control | T/C (endpoint: mean survival time, dose: 267.0 mg/kg/injection, schedule: Q01DX001 (ip), vehicle: carboxymethylcellulose (CMC)): 117 % of control | T/C (endpoint: mean survival time, dose: 600.0 mg/kg/injection, schedule: Q01DX001 (ip), vehicle: carboxymethylcellulose (CMC)): 123 % of control | T/C (endpoint: median survival time, dose: 12.5 mg/kg/injection, schedule: Q01DX011 (ip), vehicle: steriod suspending solution): 112 % of control | T/C (endpoint: median survival time, dose: 25.0 mg/kg/injection, schedule: Q01DX011 (ip), vehicle: steriod suspending solution): 112 % of control | T/C (endpoint: median survival time, dose: 100.0 mg/kg/injection, schedule: Q01DX011 (ip), vehicle: steriod suspending solution): 218 % of control

O=C(Cl)/C=C/c1c(Cl)cccc1Cl
T/C (endpoint: mean survival time, dose: 75.0 mg/kg/injection, schedule: Q01DX009 (ip), vehicle: Klucel (hydroxypropylcellulose) (HPC)): 102 % of control | T/C [11]: 103 % of control | T/C (endpoint: mean survival time, dose: 150.0 mg/kg/injection, schedule: Q01DX009 (ip), vehicle: Klucel (hydroxypropylcellulose) (HPC)): 100 % of control | T/C [12]: 92 % of control | T/C (endpoint: mean survival time, dose: 300.0 mg/kg/injection, schedule: Q01DX009 (ip), vehicle: Klucel (hydroxypropylcellulose) (HPC)): 93 % of control

O=C(CSC1=NCCN1)c1ccccc1
T/C [1]: 101 % of control

CCCCC(=O)Nc1cccc(OC(=O)NC)c1
T/C [6]: 92 % of control | T/C [7]: 95 % of control | T/C [8]: 87 % of control

C[N+](C)(CC(=O)Nc1ccc(Cl)c(C(F)(F)F)c1)CC(=O)c1ccc(Cl)c(Cl)c1
T/C (endpoint: mean survival time, dose: 100.0 mg/kg/injection, schedule: Q04DX003 (ip), vehicle: saline sonified): 97 % of control | T/C (endpoint: mean survival time, dose: 200.0 mg/kg/injection, schedule: Q04DX003 (ip), vehicle: saline sonified): 111 % of control | T/C (endpoint: mean survival time, dose: 400.0 mg/kg/injection, schedule: Q04DX003 (ip), vehicle: saline sonified): 100 % of control

CCOC(=O)C(C(=O)Nc1ccccc1)=S(C)C
T/C [14]: 94 % of control | T/C [15]: 106 % of control | T/C [16]: 116 % of control

N#CCCCC[P+](c1ccccc1)(c1ccccc1)c1ccccc1
T/C (endpoint: mean survival time, dose: 25.0 mg/kg/injection, schedule: Q01DX009 (ip), vehicle: saline): 107 % of control | T/C (endpoint: mean survival time, dose: 50.0 mg/kg/injection, schedule: Q01DX009 (ip), vehicle: saline): 93 % of control

O=[N+]([O-])c1ccc(-c2ccc([N+](=O)[O-])cc2)cc1
T/C [14]: 98 % of control | T/C [15]: 124 % of control | T/C [16]: 95 % of control

C=CCS(=O)(=O)c1ccccc1
T/C [4]: 106 % of control | T/C [5]: 98 % of control | T/C (endpoint: mean survival time, dose: 400.0 mg/kg/injection, schedule: Q01DX009 (ip), vehicle: saline): 101 % of control

Cc1ccc(NC(N)=S)nc1
T/C [11]: 100 % of control | T/C [12]: 94 % of control | T/C [13]: 99 % of control

O=[N+]([O-])c1cccc(C=Nc2ccccc2Cl)c1
T/C (endpoint: mean survival time, dose: 100.0 mg/kg/injection, schedule: Q01DX001 (ip), vehicle: Klucel (hydroxypropylcellulose) (HPC)): 101 % of control and 103 % of control | T/C (endpoint: mean survival time, dose: 200.0 mg/kg/injection, schedule: Q01DX001 (ip), vehicle: Klucel (hydroxypropylcellulose) (HPC)): 101 % of control | T/C (endpoint: mean survival time, dose: 400.0 mg/kg/injection, schedule: Q01DX001 (ip), vehicle: Klucel (hydroxypropylcellulose) (HPC)): 101 % of control and 103 % of control
